Source: patent US20260274794A1, “COMPOUNDS, COMPOSITIONS, AND METHOD OF INHIBITING TAU PROTEIN AND ALPHASYNUCLEIN AGGREGATION” (Purdue Research Foundation, priority 2023, published 2026)
“Also recorded” adds a separate entry of the source.

How the values were obtained:
α-syn [1] = biological target: T1, α-syn (Homo sapiens, UniProt P37840); assay: PICUP assay of α-syn oligomerization; assay type: biochemical; design: purchased rPeptide, LLC (Watkinsville, GA); settings: for α-syn oligomerization (PICUP crosslinking): compound 50 μM; for α-syn oligomer formation, PICUP dose-response: compound 3.125-50 μM
Experimental: (§1) To force the oligomerization by cross-linking, α-syn (from Rpeptide, LLC) and tau isoform 2N4R were diluted in 10 mM phosphate buffer (pH 7.4) to reach a final concentration of 10 μM [27]. Different compounds were added to the protein solution at a final concentration of 50 μM, resulting in a molar ratio of 1:5. To confirm the gradual effect of the compounds on the inhibition of α-syn oligomerization, compounds were tested at final concentration of 3.125, 6.25, 12.5, 25, and 50 μM. The controls consisted of samples without light exposition, without Ru(bpy), and without compound (i.e., 0.125% DMSO). The cross-linking reaction was initiated by the addition of 2 μL of Ru(bpy) (300 μM final concentration) and 2 μL ammonium persulfate (6 mM final concentration). Samples were irradiated immediately. Light exposition was of 1 second duration for ca-syn and 3 second duration for tau isoform 2N4R, with a 53 W (120 V) incandescent lamp installed in a homemade dark-box. Each tube contained a final volume of 20 μL. After irradiation, 8.3 μL. of Lammeli loading buffer containing 15% β-mercaptoethanol was immediately added to the solution, followed by incubation at 95° C. for 10 minutes. The cross-linked samples were separated on a 16% SDS-Page gel and visualized by Coomassie blue staining.
(§2) One end point used to verify the propensity of misfolded protein in the drug discovery field is the inhibition of oligomer formation. The photo-induced cross-linking of unmodified proteins (PICUP) assay was used to investigate α-syn (60 μM) and tau isoform 2N4R (6 μM) oligomerization in the presence of eight amide compounds (2, 4, 5, 6, 7, 8, 13, and 17 at 50 μM, i.e., ~molar ratio 1:8 for tau). After being subjected to short light exposure, α-syn and tau were cross-linked and Coomassie-stained resolved as a higher molecular weight compared to control (0.125% DMSO). […] Compound 13 was used as a negative control for the α-syn PICUP.
(§3) PICUP assays were performed with different concentrations (50 μM, 25 μM, 12.5 μM, 6.25 μM, 3.125 μM; control=0.125% DMSO) for each lead compound.

α-syn [2] = biological target: T1, α-syn; assay: Western blot (anti-oligo A11, anti-α-syn) of uncross-linked α-syn; assay type: biochemical; settings: compound 600 μM, α-syn 60 μM, 37° C., 24 hours
Experimental: To validate the PICUP results, the uncross linked α-syn (produced in Dr. Rochet lab) was incubated at a final concentration of 60 μM in 10 mM phosphate buffer (pH 7.4) with the presence of vehicle (1.5% DMSO), the amide compounds of interest (Compounds 2, 8, 17), and the weak anti-fibrillization inhibitor (compound 13). Compounds were tested at a final concentration of 600 μM (molar ratio 1:10). Samples were incubated for 24 h and 48 h with constant shaking 300 rpm at 37° C. (VWR Thermal Shake Touch, Troemner, LLC, Thorofare, NJ). After completion of the incubation time, samples were mixed with one third volume of above-mentioned loading buffer and separated by electrophoresis in a 16% SDS-Page gel. […] Nitrocellulose membranes were exposed to the monoclonal antibodies diluted at 1/1000 using a 5% non-fat dried milk with TBS and 0.1% Tween-20 (TBS-T) for 12 h at 4° C. Peroxidase conjugated secondary antibodies consisted of an anti-rabbit (Rockland Immunochemicals, inc., Pottstown, PA, cat. #611-1322-0100) and an anti-mouse (Rockland, cat. #610-1319-0100) utilized at a dilution of 1/5000 in 5% non-fat dried milk with TBS-T for one hour at room temperature. The membranes were then exposed to a 1:1 ratio of enhanced chemiluminescent solution (Thermo Scientific, Rockford, IL, cat. #32209) for one minute before the acquisition of images using a SynGene G;Box scanner (model Chemi XR 5 and the G:Box Chemi-XRQ GENESYS software.
One limitation of the PICUP is the generation of free radicals which can be quenched by aromatic compounds resulting in false positives. For this reason, results obtained by PICUP were validated using the uncross-linked α-syn. High concentration of different compounds (600 μM; molar ratio of 1:10) were incubated at 37° C. for 24 hours with 60 μM of α-syn and separated by electrophoresis in 16% SDS-PAGE gels. Western blots using polyclonal anti-oligo A11 and monoclonal anti-α-syn were assessed to detect the high molecular weight oligomers and monomeric α-syn, respectively.

tau isoform 2N4R [3] = biological target: T2, tau isoform 2N4R (Homo sapiens, UniProt P10636); assay: PICUP assay of tau isoform 2N4R oligomerization; assay type: biochemical; settings: compound 50 μM
T2 construct: made in house; host or cells: E. coli BL21 (DE3), vector pRK172
T2 sequence (P10636 1-441 isoform P10636-8): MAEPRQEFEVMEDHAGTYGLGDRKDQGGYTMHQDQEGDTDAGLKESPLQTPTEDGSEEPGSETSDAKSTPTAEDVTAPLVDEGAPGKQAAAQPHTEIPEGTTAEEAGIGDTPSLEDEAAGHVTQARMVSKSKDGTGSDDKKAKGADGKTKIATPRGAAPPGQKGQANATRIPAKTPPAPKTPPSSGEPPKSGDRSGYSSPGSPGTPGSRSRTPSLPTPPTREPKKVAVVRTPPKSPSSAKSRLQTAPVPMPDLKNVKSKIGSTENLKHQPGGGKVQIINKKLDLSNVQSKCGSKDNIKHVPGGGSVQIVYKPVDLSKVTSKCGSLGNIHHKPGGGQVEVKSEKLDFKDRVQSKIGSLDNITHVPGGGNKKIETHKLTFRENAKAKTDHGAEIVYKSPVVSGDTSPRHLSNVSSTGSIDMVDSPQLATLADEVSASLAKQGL
Experimental: as §1, §2, §3

α-synuclein (α-syn) = biological target: T3, α-synuclein (α-syn) (Homo sapiens, UniProt P37840); assay: Thioflavin T (ThT) fluorescence assay of α-syn fibril formation; assay type: biochemical; settings: compound 3.125-100 μM, α-syn 2 μM, plateau phase
T3 construct: purchased rPeptide, LLC (Watkinsville, GA)

tau isoform 2N4R [4] = biological target: T2, tau isoform 2N4R; assay: ThT fluorescence assay of tau isoform 2N4R fibril formation; assay type: biochemical; settings: for effect on tau isoform 2N4R fibril formation (ThT): compound 100 μM, tau 2N4R 6 μM; for tau isoform 2N4R fibrillization, ThT dose-response: compound 3.125-100 μM, tau 6 μM, plateau phase
Experimental: ThT fluorescence is routinely established assay to follow the kinetics of α-syn fibril formation with different drug candidate treatments. Compounds were first tested at a final of concentration of 100 μM and α-syn and 2N4R tau were prepared at 2 μM and 6 μM, respectively. Compounds with highest anti-fibrillary activity were tested at 3.125, 6.25, 12.5, 25, 50, and 100 μM to obtain dose-response curves.
Concerning the non-phosphorylated tau (isoform 2N4R) kinetics of fibril formation, ThT was performed with the tau protein solution was diluted to a final concentration of 6 μM in PBS (pH 7.4) supplemented with 1.5 μM heparin, 20 μM ThT, 2.5 mM DTT, and 100 μM compound. Aliquots of the diluted protein solution (100 μL each) were pipetted into the wells of a 96-well plate, and a Teflon ball was added to each well. The plate was incubated at 37° C. with constant shaking at 1,000 rpm in a Tecan Stark plate reader. ThT fluorescence was measured every 15 min with excitation and emission wavelengths of 440 nm and 480 nm, and the data were plotted using GraphPad Prism.
Various structural analogs were first tested at a final concentration of 100 μM in the presence of tau 2N4R at 6 μM. Compounds 2, 4-8, and 17 were pre-selected with α-syn ThT assay prior to evaluation on the tau isoform 2N4R.

[5] = Mouse microsomal stability; assay type: in vitro ADME
[6] = Brain and plasma concentration after administration; assay type: in vivo; settings: 1 mg/kg
Experimental: For compound 8, the brain concentration and plasma concentration ratio is equal to more than 1 for the 3 time points (0.08, 0.5 and 1 hour) where the compound was detected, which is adequate.

SMILES | α-syn oligomerization (PICUP crosslinking) (α-syn [1]) | α-syn oligomer formation, PICUP dose-response (α-syn [1]) | oligomeric species bands of uncross-linked α-syn (Western blot) (α-syn [2]) | tau isoform 2N4R oligomerization (PICUP crosslinking) (tau isoform 2N4R [3]) | α-syn fibrillization, ThT dose-response (α-synuclein (α-syn)) | effect on tau isoform 2N4R fibril formation (ThT) (tau isoform 2N4R [4]) | tau isoform 2N4R fibrillization, ThT dose-response (tau isoform 2N4R [4]) | Mouse microsomal stability [5] | Half-life [6] | detection of compound over time [6] | Kp ([6]; brain and plasma, 0.08, 0.5 and 1 hour, read-out: brain concentration and plasma concentration ratio)
O=C(Nc1cccc2[nH]ccc12)c1ccccc1 [Compound 2, N-(1H-indol-4-yl)benzamide] | effectively prevented this crosslinking | prevented α-syn oligomer formation in a dose-dependent manner | narrow, less intense bands compared to control | effectively prevented this crosslinking; also recorded: prevented tau 2N4R oligomer formation | reduction in protein fibrillization when subjected to higher concentrations | weaker anti-fibrilization effect | reduction in protein fibrillization when subjected to higher concentrations | – | – | – | –
O=C(Nc1cccc2[nH]ccc12)c1ccc(F)cc1 [Compound 8, 4-fluoro-N-(1H-indol-4-yl)benzamide] | effectively prevented this crosslinking | prevented α-syn oligomer formation in a dose-dependent manner | narrow, less intense bands compared to control | effectively prevented this crosslinking; also recorded: prevented tau 2N4R oligomer formation | reduction in protein fibrillization when subjected to higher concentrations | good inhibitory effect | reduction in protein fibrillization when subjected to higher concentrations | 70% | presumed to be short | not detected beyond the time point of 60 min | > 1
O=C(Nc1ccc2[nH]ccc2c1)c1ccccc1Cl [Compound 13, 2-chloro-N-(1H-indol-5-yl)benzamide] | – | – | did not reduce the intensity of the bands | – | – | increased the fluorescence intensity | – | – | – | – | –
